The values that follow come from publication PMC5352362, “Molecular and functional evaluation of a novel HIF inhibitor, benzopyranyl 1,2,3-triazole compound” (Oncotarget, 2016).

In assay [1] the target is T1, HIF-1α (Homo sapiens, UniProt Q16665). As to the kind of experiment: HIF-1α ubiquitination, IP/IB with MG132 in A549 cells. It counts as cell-based. The note with it: hypoxia 16 h, then MG132 20 μM 4 h, compared to normoxic control cells. Here is the method: Figure 4 Compound 12 increased hydroxylation and proteasome-mediated degradation of HIF-1α (A) A549 cells were treated with Compound 12 (at concentrations of 0 nM, 1 nM, 10 nM, and 100 nM) for 16 h. Cells were fixed with paraformaldehyde; an immunofluorescence assay was then performed using anti-HIF-1α antibodies and Alexa Fluor 488-labeled secondary antibodies (green). Nuclei were stained with DAPI. N, normoxia; H, hypoxia. (B) A549 cells were treated with Compound 12 (10 nM concentration) and exposed to hypoxic conditions for 16 h. Cells were immediately treated with cycloheximide (CHX, 100 μg/mL) for the time indicated, and HIF-1α protein levels were determined by western blotting. β-actin was used as an internal control. Half-life (t1/2) of HIF-1α protein was determined using relative expression levels of HIF-1α. (C) A549 cells were treated with Compound 12 (at concentrations of 0 nM, 1 nM, 10 nM, and 100 nM) for 16 h. The expression levels of HIF-1α, hydroxylated (OH)-HIF-1α at P402 or P564, and PHD2 were determined via western blotting using specific antibodies. N, normoxia; H, hypoxia. (D) A549 cells were transfected with two kinds of small interfering RNAs targeting PHD2 and then treated with Compound 12 under hypoxic exposure for 16 h. Cell lysates were immunoblotted with an anti-HIF-1α and PHD2 antibody. […] Relative levels of ubiquitinated HIF-1α were quantified and graphed. […]
T1 sequence (Q16665 whole entry): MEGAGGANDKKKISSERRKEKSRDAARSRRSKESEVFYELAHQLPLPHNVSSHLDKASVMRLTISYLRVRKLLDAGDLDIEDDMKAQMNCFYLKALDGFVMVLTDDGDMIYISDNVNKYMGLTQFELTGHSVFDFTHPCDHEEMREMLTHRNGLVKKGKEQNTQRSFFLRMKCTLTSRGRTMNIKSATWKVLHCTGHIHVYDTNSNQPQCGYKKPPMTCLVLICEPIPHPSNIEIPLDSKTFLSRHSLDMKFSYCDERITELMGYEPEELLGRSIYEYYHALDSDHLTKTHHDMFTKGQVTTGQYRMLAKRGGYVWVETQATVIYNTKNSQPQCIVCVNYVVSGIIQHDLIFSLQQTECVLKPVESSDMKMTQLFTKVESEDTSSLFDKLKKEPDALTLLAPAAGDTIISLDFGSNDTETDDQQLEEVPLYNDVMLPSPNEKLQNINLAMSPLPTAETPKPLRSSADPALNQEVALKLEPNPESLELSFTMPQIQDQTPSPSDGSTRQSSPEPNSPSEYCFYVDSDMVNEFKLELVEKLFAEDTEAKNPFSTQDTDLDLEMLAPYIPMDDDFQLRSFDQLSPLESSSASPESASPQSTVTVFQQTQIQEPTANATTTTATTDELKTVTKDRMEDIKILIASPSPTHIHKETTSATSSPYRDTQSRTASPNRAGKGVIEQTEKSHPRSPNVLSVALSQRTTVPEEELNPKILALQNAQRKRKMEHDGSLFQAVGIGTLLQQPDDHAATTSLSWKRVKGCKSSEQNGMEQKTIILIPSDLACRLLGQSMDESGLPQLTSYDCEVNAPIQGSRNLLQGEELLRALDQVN

Assay [2] deals with HIF-1α target genes (VEGF, ALDOC, CA9, GLUT1, CXCR4). As to the kind of experiment: Semiquantitative RT-PCR of HIF-1α target genes in A549 cells. Format: cell-based, human. The conditions noted are these: 1–100 nM, 16 h, hypoxia. From the text:
As HIF-1α regulates transcription of its target genes, which are involved in angiogenesis, glucose metabolism, and metastasis in tumor progression, we determined the effects of Compound 12 on HIF-1 target gene expression at the mRNA level by semiquantitative RT-PCR. […] Thus, we checked secreted VEGF protein levels in culture media via ELISA.
Figure 5 Compound 12 suppressed HIF-1α target gene expression, and confirmation of in vitro results via determination of effects on angiogenesis in vivo (A) A549 cells were treated with Compound 12 (at concentrations of 0 nM, 1 nM, 10 nM, and 100 nM) for 16 h. The mRNA levels of HIF-1α target genes were determined by semiquantitative RT-PCR. β-actin was used as an internal control. D. DMSO vehicle control. N, normoxia; H, hypoxia. […] Media supernatant was collected, and secreted VEGF was determined by ELISA after removal of cellular debris. […] Cells that migrated through the membrane (8 μm pore size) were stained with hematoxylin and eosin, pictured as shown in upper panel, and counted (graph). *P < 0.05, **P < 0.01 versus VEGF-treated control. […] (F) Compound 12 (0.1 μg and 1 μg dosages) and retinoic acid (RA, positive control) were applied to the ED 4.5 CAM for two days, neovessel formation from the large vessels was observed, and percentages of positive angiogenic eggs (from total eggs tested) were calculated. […]

In assay [3] the target is T1, HIF-1α. As to the kind of experiment: Western blot of HIF-1α protein in hypoxic A549 cells. Format: cell-based. The note with it: hypoxia 16 h.
Description: Next, we evaluated the inhibitory effects of the nine aforementioned test compounds on HIF-1α protein accumulation by western blot analyses in A549 cells experiencing hypoxic conditions.
Treatment was under hypoxic conditions for 16 h. Cells were then lysed for western blot analysis, which was conduced with antibodies against HIF-1α and β-actin. Expression levels were quantified by ImageJ (NIH, Bethesda, MO, USA) and graphed. **P < 0.01 versus 1% O2 DMSO (D)-treated control group.
(B, C) After HEK-293 cells (B) and A549 cells (C) were treated with Compound 12 (at concentrations of 0 nM, 0.1 nM, 1 nM, 10 nM, 100 nM, and 1000 nM) under hypoxic conditions for 16 h, expression of HIF-1α was determined by western blot analysis and then graphed. (D, E) Half maximal inhibitory concentration (IC50) values were calculated using GraphPad Prism software, using the quantified HIF-1α levels determined in B and C.
HEK-293 cells and A549 cells were treated with Compound 12, at 0.1–1000 nM concentrations, under hypoxic conditions for 16 h.
Proteins extracted from cells using PRO-PREP (iNtRon Biotech, South Korea) were separated by SDS-PAGE and transferred to a nitrocellulose membrane (Whatman, Maidstone, UK). Membranes were blocked with 5% skim milk in Tris-buffered saline (TBS) containing 0.1% Tween-20 for 30 min at room temperature (RT). After blocking, membranes were incubated with specific primary antibodies overnight at 4°C, followed by incubation with horseradish peroxidase-conjugated mouse- or rabbit-IgG for 1 h at RT. Antibody binding was detected using an enhanced chemiluminescence (ECL) kit (BioRad, Hercules, CA) according to the manufacturer's instructions. Primary antibodies against the following factors were used: HIF-1α (BD Biosciences, San Diego, CA, USA), HIF-1β (Cell Signaling Technology, Danvers, MA, USA), β-actin (Santa Cruz Biotechnology, Santa Cruz, CA, USA), hydroxylated-HIF-1α (P564) (Cell Signaling Technology, Danvers, MA, USA), and PHD2 (Abcam, Cambridge, UK).

Consider `COc1ccc(-c2cn(CC3(C)C=Cc4cc([N+](=O)[O-])ccc4O3)nn2)cc1` (centres unmarked) [Compound 12, 4-(4-methoxyphenyl)-1-((2-methyl-6-nitro-2H-chromen-2-yl)methyl)-1H-1,2,3-triazole], for which, in assay [1], the “ubiquitination of HIF-1α” value is “significantly increased”. Further, the “mRNA levels of VEGF, ALDOC, CA9, GLUT1 and CXCR4” value in assay [2] is on record as “suppressed the mRNA levels”. Moreover, in assay [3] (1 nM, read-out: downregulation of HIF-1α protein expression), the inhibition at 0.001 µM was around 50%. Besides, the “inhibitory effect on HIF-1α accumulation (western blot)” value in assay [3] (1 μM) is “most potent inhibitory effect”. The inhibition at 1 µM in assay [3] (1 μM, compared to hypoxic control, read-out: reduction of HIF-1α protein levels) came to 80%.
